Results taken from patent US7084158B2, “Substituted propargylamines” (Bayer Cropscience S.A., priority 2001, dated 2006).

Legend:
Format in all cases: in vivo
Parameters in all cases: key: compounds were considered to be active when, at a concentration of 500 ppm or less, they had an activity on the harmful organisms of 50% or more
Nilaparvata lugens = test: Example A: rice leaf dip, leafhopper larvae mortality; conditions: 500 ppm or less; L3 larvae on dipped rice plants; after 6 days
How it was run: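 Rice plants (8 cm stems) were leaf-dipped for 5 s in aqueous formulated compound and infested with about 20 L3 Nilaparvata lugens larvae. They were kept 6 days at 25 °C, 16 h light/day and 40–60% relative humidity, after which larval mortality was scored.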

Heliothis virescens [1] = test: Example B: tobacco budworm eggs on filter paper/insect diet, mortality; conditions: 500 ppm or less; 24-hour-old eggs dipped, diet treated; after 6 days
[2] = test system: Diabrotica undecimpunctata; test: Example C: corn rootworm eggs with maize corn, mortality; conditions: 500 ppm or less; 4-5-day-old eggs; after 6 days
Carpocapsa pomonella [3] = test: Example D: dipped apples, codling moth L1 larvae mortality; conditions: 500 ppm or less, after 14 days
Method: Apples were dipped into an aqueous solution of the formulated compound to be examined. The apples were then populated with 10 L1 larvae of the codling moth (Carpocapsa pomonella). After 14 days of storage at about 25° C., the effect of the compound on the larvae was determined (mortality). The compounds of the following examples were active: Nos. 14, 15, 17, 18, 70, 1007, 1008, 1009, 1036, 1038, 197.

Plutella maculipennis = test: Example K: sprayed white cabbage leaf, diamondback moth larvae mortality; conditions: 500 ppm or less, after 3 days
Method: A white cabbage leaf was sprayed with an aqueous solution of the formulated compound to be examined. After the spray coating had dried, the treated leaf was populated with larvae of the diamondback moth (Plutella maculipennis). After 3 days of storage at about 23° C., the effect of the compound on the larvae was determined (mortality). The compounds of the following examples were active: 60, 70, 1002, 1004, 1005, 1036, 197.

[4] = test system: Leptinotarsa decemlineata; test: Example L: potato leaves and larvae sprayed, Colorado beetle mortality; conditions: 500 ppm or less, after 4 days
Method: Potato leaves were populated with larvae of the Colorado beetle (Leptinotarsa decemlineata). Leaves and larvae were then sprayed with an aqueous solution of the formulated compound to be examined. After 4 days of storage at about 25° C., the effect of the compound on the larvae was determined (mortality). The compounds of the following examples were active: 60, 70, 1002, 1004, 1005, 1036, 1047, 197.

Ctenocephalides felis = test: Example M: cat fleas fed with treated cattle blood, mortality; conditions: 500 ppm or less; adult fleas fed blood-preparation mixture; after 48 hours
Method: The formulated compound was mixed with defibrinated cattle blood. 10 adult cat fleas (Ctenocephalides felis) were fed with this blood-preparation mixture. After 48 hours at about 38° C., the effect of the compound on the fleas was determined (mortality). The compounds of the following examples were active: 70, 1002, 1004, 1005, 1036, 60, 197, 1057.

Spodoptera exigua [5] = test: Example Y: cotton plants sprayed, cut leaves, sugar beet armyworm mortality; conditions: 500 ppm or less, leaves cut after drying, L2 larvae, after 4 days
Method: Cotton plants were sprayed with an aqueous solution of the formulated compound to be examined. After drying, leaves were cut off, placed into a Petri dish and populated with 5 L2 larvae of the sugar beet armyworm (Spodoptera exigua). After 4 days of storage at about 23° C., the mortality among the larvae was determined. The following examples were active: 1036, 70, 60, 1047, 197.

Spodoptera exigua [6] = test: Example Z: cotton leaves with larvae sprayed, sugar beet armyworm mortality; conditions: 500 ppm or less; cotton leaves populated then sprayed; L2 larvae; after 4 days
Method: Cotton leaves were populated with 5 L2 larvae of the sugar beet armyworm (Spodoptera exigua) and then sprayed with an aqueous solution of the formulated compound to be examined. After 4 days of storage at about 23° C., the mortality among the larvae was determined. The following examples were active: 1036, 70, 60, 1047, 197.

Carpocapsa pomonella [7] = test: Example AA: insect diet mixed with compound, codling moth L1 larvae mortality; conditions: 500 ppm or less, compound mixed into insect diet, after 14 days
Method: Insect diet was mixed with an aqueous solution of the formulated compound to be examined and populated with 10 L1 larvae of the codling moth (Carpocapsa pomonella). After 14 days of storage at about 23° C., the mortality among the larvae was determined. The following examples were active: 70, 197.

Heliothis virescens [8] = test: Example AB: cotton leaves with larvae sprayed, tobacco budworm mortality; conditions: 500 ppm or less; cotton leaves with L2 larvae sprayed; after 4 days
Method: Cotton leaves were placed into a Petri dish, populated with 5 L2 larvae of the American tobacco budworm (Heliothis virescens) and sprayed with an aqueous solution of the formulated compound to be examined. After 4 days of storage at about 25° C., the mortality among the larvae was determined. The following examples were active: 70, 1047, 197.

[9] = test system: Diabrotica undecimpunctata; test: Example AC: treated soil, southern corn rootworm eggs mortality; conditions: 500 ppm or less, eggs added after 0d, 21d and 42d, after 2 weeks
Method: An aqueous solution of the formulated compound to be examined was mixed with soil. After 0d, 21d and 42d, eggs of the southern corn rootworm (Diabrotica undecimpunctata) were placed together with 2 pre-swollen maize corns into a dish, covered with the treated soil and moisted with 10 ml of water. Soil and eggs were placed in a greenhouse (23° C., 60% relative atmosphere humidity). After 2 weeks of storage, the effect of the compound on the eggs and any larvae hatched therefrom was determined (mortality). The following examples were active: 70, 60, 197, 204.

[10] = test system: Trialeurodes vaporariorum; test: Example AD: bush beans sprayed, white fly larvicidal action; conditions: 500 ppm or less; bush beans sprayed after hatching; after 11 days
Method: For oviposition, bush beans (Phaseolus vulgaris) were populated for 48 hours with adults of the white fly (Trialeurodes vaporariorum). After the larvae had hatched, the plants were sprayed to run-off point with an aqueous solution of the formulated compound to be examined. After 11 days, the larvicidal action was determined. The following examples were active: 1036, 70, 60, 1040, 197.

Rhipicephalus sanguineus = test: Example AF: treated filter paper, tick larvae mortality; conditions: 500 ppm or less, after 24 hours
Method: The formulated compound was pipetted onto filter paper. After the solvent had evaporated, 20–30 tick larvae (Rhipicephalus sanguineus) were placed onto the filter paper. After 24 hours at about 25° C., the effect of the compound on the ticks was determined (mortality). The following examples were active: 197, 1057.

Cc1cc(C(F)(F)F)cc(C#CCN2CCC(C)CC2)n1 [Example 197]
active: mortality among the leafhopper larvae (Nilaparvata lugens) | effect on the eggs and hatched larvae (mortality) (Heliothis virescens [1]) | effect on the eggs and hatched larvae (mortality) [2] | effect on the larvae (mortality) (Carpocapsa pomonella [3]) | effect on the larvae (mortality) (Plutella maculipennis) | effect on the larvae (mortality) [4] | effect on the fleas (mortality) (Ctenocephalides felis) | mortality among the larvae (Spodoptera exigua [5]) | mortality among the larvae (Spodoptera exigua [6]) | mortality among the larvae (Carpocapsa pomonella [7]) | mortality among the larvae (Heliothis virescens [8]) | effect on the eggs and hatched larvae (mortality) [9] | larvicidal action [10] | effect on the ticks (mortality) (Rhipicephalus sanguineus)
